Entries after “also recorded” stand apart in the source; their conditions may differ. Square brackets hold non-standard residues; d marks the D form. Ends that are not written are not given here. pGlu = O=C1CC[C@@H](C(=O)O)N1
What was measured:
panelists = assay: Increased salt perception protocol: salt 5 reference (0.35% salt solution) re-tasted after expectoration of test sample; type: in vivo, human; settings: for Astringent, after-expectoration perception / Bitter, after-expectoration perception / Flinty/Mineral, after-expectoration perception / Metallic, after-expectoration perception / Numbing, after-expectoration perception / Salt, after-expectoration perception (mean salt perception after expectoration) / Sour, after-expectoration perception / Sweet, after-expectoration perception: salt 5 reference re-tasted, mean score; for Level of the aromatics, basic tastes and chemical feeling factors after expectoration with increasing concentration / Salt perception from in-mouth to after expectoration: 0.1 to 40.0/50.0 ppb; for Salt perception after expectoration as the concentration increases: 0.1 to 40.0/50.0 ppb in 0.2% NaCl; for Umami like swelling of lips and tongue, after expectoration: all levels; for Salt perception from in-mouth to after expectoration: all samples
Excerpt: 1. Each panelist tasted a salt reference (0.35% salt solution) with a reference salt intensity of 5.0 which provided a baseline for each panelist for salt intensity. 2. Each panelist tasted a test sample (0.1 ppb, 0.5 ppb, 1.0 ppb, 10.0 ppb or 40.0 ppb all in 0.2% NaCl solution). Only one sample was tasted per session. 3. Each panelist re-tasted the salt reference (5.0 intensity) and rated it for salt intensity as well as any other basic taste, chemical feeling factor, or aromatic perceived. Thus, any increased salt perception as a result of the test sample would be determined, as well as any other perceptions present. Attribute Perception Protocol • The panelists evaluated each sample using the following procedure • Descriptive Profiles (flavor and chemical feeling factors) of 5 levels of salt enhancing solutions • Individual data was collected for the flavor and chemical feeling factors of the product in-mouth • Increased Salt Perception Protocol • Each panelist tasted salt 5 reference (0.35% salt solution)—to ground themselves on salt intensity of 5.0. • Each panelist tasted the test sample (0.1 ppb, 0.5 ppb, 1.0 ppb, 10.0 ppb or 40.0/50.0 ppb all in 0.2% NaCl solution: only one per session) • Each panelist then re-tasted the salt 5 reference and rated it for salt intensity as well as any other basic taste, chemical feeling factor, or aromatic perceived. This captured any increased salt perception indicated by the test sample as well as any other perceptions present. • Return to Baseline Protocol • After evaluating the sample for salt & other perceptions, panelists re-tasted the salt 5 reference at 1 minute intervals until their perception of the salt 5 saltiness intensity had returned to 5.0. Each panelist recorded their salt intensity at each interval and took qualitative notes on other perceptions seen in aftertaste. Sample Preparation

panel of trained tasters = assay: Saltiness of 25% sodium-reduced food products with peptides, panel of trained tasters; type: in vivo, human
Protocol: Food product compositions were prepared by admixing flavor composition peptide(s) of the present application with food compositions, wherein the level of sodium (NaCl) in the food product compositions was reduced. The level of sodium was reduced by 25%, 50% or 75% compared to food products compositions that were not admixed with flavor composition peptides. The food product compositions comprising the flavor composition peptides were tasted by a panel of trained tasters and the level of saltiness was compared to the control food products.
The peptides pGlu-Val-Leu (identified as “SE-13”), pGlu-Val-Cys (identified as “UE-30”), pGlu-Val-Val (identified as “SE-17”) and pGlu-Cys-Cys (identified as “FE-37”) were tested in cottage cheese, tortilla chips, ketchup, cream of mushroom soup, alfredo sauce, sausage, mixed nuts, peanuts, soy sauce and chicken broth. The level of sodium in the test food products comprising the peptides was reduced by 25% compared to the control food products.

## [pGlu]-Val [SE-14]
panelists; 0.1 ppb in 0.2% NaCl
  Astringent, after-expectoration perception: 0.0
  Bitter, after-expectoration perception: 0.0
  Flinty/Mineral, after-expectoration perception: 1.1
  Metallic, after-expectoration perception: 0.3
  Numbing, after-expectoration perception: 0.0
  Salt, after-expectoration perception (mean salt perception after expectoration): 6.7
  Sour, after-expectoration perception: 0.0
  Sweet, after-expectoration perception: 0.0
panelists
  Level of the aromatics, basic tastes and chemical feeling factors after expectoration with increasing concentration: do not increase
  Salt perception after expectoration as the concentration increases: increases slightly; also recorded: slight increase
  Umami like swelling of lips and tongue, after expectoration: Panelists also experience Umami like swelling of lips and tongue
  Salt perception from in-mouth to after expectoration: increases after expectoration (from in-mouth) in all samples; also recorded: noticeable increase
panelists; 0.5 ppb in 0.2% NaCl
  Astringent, after-expectoration perception: 0.1
  Bitter, after-expectoration perception: 0.0
  Flinty/Mineral, after-expectoration perception: 1.0
  Metallic, after-expectoration perception: 0.1
  Numbing, after-expectoration perception: 0.0
  Salt, after-expectoration perception (mean salt perception after expectoration): 7.0
  Sour, after-expectoration perception: 0.0
  Sweet, after-expectoration perception: 0.0
panelists; 1.0 ppb in 0.2% NaCl
  Astringent, after-expectoration perception: 0.1
  Bitter, after-expectoration perception: 0.0
  Flinty/Mineral, after-expectoration perception: 0.5
  Metallic, after-expectoration perception: 0.1
  Numbing, after-expectoration perception: 0.0
  Salt, after-expectoration perception (mean salt perception after expectoration): 7.0
  Sour, after-expectoration perception: 0.0
  Sweet, after-expectoration perception: 0.0
panelists; 10.0 ppb in 0.2% NaCl
  Astringent, after-expectoration perception: 0.0
  Bitter, after-expectoration perception: 0.0
  Flinty/Mineral, after-expectoration perception: 1.0
  Metallic, after-expectoration perception: 0.2
  Numbing, after-expectoration perception: 0.0
  Salt, after-expectoration perception (mean salt perception after expectoration): 7.3
  Sour, after-expectoration perception: 0.0
  Sweet, after-expectoration perception: 0.0
panelists; 50.0 ppb in 0.2% NaCl
  Astringent, after-expectoration perception: 0.1
  Bitter, after-expectoration perception: 0.0
  Flinty/Mineral, after-expectoration perception: 0.6
  Metallic, after-expectoration perception: 0.1
  Numbing, after-expectoration perception: 0.0
  Salt, after-expectoration perception (mean salt perception after expectoration): 8.0
  Sour, after-expectoration perception: 0.0
  Sweet, after-expectoration perception: 0.0

## [pGlu]-Val-Leu [SE-13]
panelists; 0.1 ppb in 0.2% NaCl
  Astringent, after-expectoration perception: 0.0
  Bitter, after-expectoration perception: 0.1
  Flinty/Mineral, after-expectoration perception: 0.1
  Metallic, after-expectoration perception: 0.3
  Numbing, after-expectoration perception: 0.0
  Salt, after-expectoration perception (mean salt perception after expectoration): 6.8
  Sour, after-expectoration perception: 0.0
  Sweet, after-expectoration perception: 0.0
panelists
  Level of the aromatics, basic tastes and chemical feeling factors after expectoration with increasing concentration: do not increase
  Salt perception after expectoration as the concentration increases: increases slightly; also recorded: slight increase
  Umami like swelling of lips and tongue, after expectoration: Panelists also experience Umami like swelling of lips and tongue
  Salt perception from in-mouth to after expectoration: increases after expectoration in all samples; also recorded: noticeable increase
panelists; listed as pGlu-Val-Leu
  Salt perception after expectoration as the concentration increases: increased slightly
  Salt perception from in-mouth to after expectoration: increased after expectoration in all samples
panelists; 0.5 ppb in 0.2% NaCl
  Astringent, after-expectoration perception: 0.0
  Bitter, after-expectoration perception: 0.0
  Flinty/Mineral, after-expectoration perception: 0.1
  Metallic, after-expectoration perception: 0.3
  Numbing, after-expectoration perception: 0.1
  Salt, after-expectoration perception (mean salt perception after expectoration): 6.4
  Sour, after-expectoration perception: 0.0
  Sweet, after-expectoration perception: 0.0
panelists; 1.0 ppb in 0.2% NaCl
  Astringent, after-expectoration perception: 0.0
  Bitter, after-expectoration perception: 0.0
  Flinty/Mineral, after-expectoration perception: 0.2
  Metallic, after-expectoration perception: 0.1
  Numbing, after-expectoration perception: 0.0
  Salt, after-expectoration perception (mean salt perception after expectoration): 7.5
  Sour, after-expectoration perception: 0.0
  Sweet, after-expectoration perception: 0.0
panelists; 10.0 ppb in 0.2% NaCl
  Astringent, after-expectoration perception: 0.0
  Bitter, after-expectoration perception: 0.0
  Flinty/Mineral, after-expectoration perception: 0.1
  Metallic, after-expectoration perception: 0.3
  Numbing, after-expectoration perception: 0.0
  Salt, after-expectoration perception (mean salt perception after expectoration): 8.2
  Sour, after-expectoration perception: 0.0
  Sweet, after-expectoration perception: 0.0
panelists; 40.0 ppb in 0.2% NaCl
  Astringent, after-expectoration perception: 0.0
  Bitter, after-expectoration perception: 0.0
  Flinty/Mineral, after-expectoration perception: 0.3
  Metallic, after-expectoration perception: 0.2
  Numbing, after-expectoration perception: 0.0
  Salt, after-expectoration perception (mean salt perception after expectoration): 8.3
  Sour, after-expectoration perception: 0.0
  Sweet, after-expectoration perception: 0.0
Panel of trained tasters; Chicken Broth, control 860 mg, test 645 mg Na, 10 ppb each, n=4
  Saltiness compared to control: Test samples saltier than
Panel of trained tasters; Cottage Cheese, control 350 mg, test 262 mg Na, 10 ppb each, n=4
  Saltiness/flavor compared to control: Test samples notably less
Panel of trained tasters; Ketchup, test 120 mg Na
  Saltiness compared to SE-17: SE-13 more salty than
Panel of trained tasters; Tortilla Chips, control 103 mg, test 77 mg Na, 10 ppb each, n=4
  Saltiness compared to control: Test samples saltier than

Reference: patent publication US10856562B2, “Flavor composition and edible compositions containing same” (MARS, INCORPORATED, priority 2013, dated 2020)
